Test results as given in patent publication US11130769B2 (Prelude Therapeutics Incorporated, priority 2018, dated 2021).
Each block holds one molecule with its values, some of them ahead of it.

What was measured:
H929 cells = experiment: Cell viability assay (H929 10 FBS); type: cell-based; conditions: Homo sapiens, NCI-H929, 24 hours, read-out: H929_10FBS IC50
Outline: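 H929 cells, 4000/well, in RPMI 1640 with 10% FBS, sodium pyruvate, HEPES and glucose were exposed to compound 24 h at 37 °C. Viability read as luminescence after 30-60 min at RT with CellTiter-Glo or ATPlite 1 Step.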

MCL-1 = MCL-1 (Homo sapiens (Human), UniProt Q07820); experiment: Cell free Mcl-1:Bim affinity assay (fluorescence polarization competition); type: binding; conditions: 15 nM MCL-1, 5 nM FITC-Bim, 1 hour at room temperature; class symbols; read-out: BIM_Ki
Chain of MCL-1 (Q07820 whole entry): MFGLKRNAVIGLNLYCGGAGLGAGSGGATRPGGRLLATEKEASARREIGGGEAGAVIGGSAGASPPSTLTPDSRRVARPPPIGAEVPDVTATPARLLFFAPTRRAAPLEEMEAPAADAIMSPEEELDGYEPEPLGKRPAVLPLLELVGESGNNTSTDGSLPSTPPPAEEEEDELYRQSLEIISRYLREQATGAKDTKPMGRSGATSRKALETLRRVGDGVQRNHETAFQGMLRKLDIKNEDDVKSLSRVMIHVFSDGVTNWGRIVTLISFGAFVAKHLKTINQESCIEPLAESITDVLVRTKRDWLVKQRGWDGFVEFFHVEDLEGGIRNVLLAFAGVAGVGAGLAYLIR
Outline: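 Compounds competed with FITC-labelled Bim peptide (5 nM) for MCL-1 (15 nM) in HEPES/NaCl buffer with 1% DMSO, 1 h at room temperature. Fluorescence polarization (535 nm emission) gave % inhibition versus DMSO and positive controls; IC50 from 10-point curves, converted to Ki by the Nikolovska-Coleska equation.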

Structure (SMILES): CO[C@H]1/C=C/CCCC(=O)NS(=O)(=O)c2ccc3c(c2)N(C[C@@H]2CC[C@H]21)C[C@@]1(CCCc2cc(Cl)ccc21)CO3 [Example 80, (3R,6R,7S,8E,22S)-6′-Chloro-7-methoxy-15,15-dioxo-spiro[20-oxa-15-thia-1,14-diazatetracyclo[14.7.2.03,6.019,24]pentacosa-8,16(25),17,19(24)-tetraene-22,1′-tetralin]-13-one]
IC50 (H929 cells): > 1000 nM
Ki (MCL-1): 1 to 100 nM

Structure (SMILES): CO[C@@H]1/C=C/C[C@H](C)[C@@H](CC(=O)N2CC(F)(F)C2)C(=O)NS(=O)(=O)c2ccc3c(c2)N(C[C@@H]2CC[C@H]21)C[C@@]1(CCCc2cc(Cl)ccc21)CO3 [Example 90, (3R,6R,7R,8E,11S,12R,22S)-6′-Chloro-12-[2-(3,3-difluoroazetidin-1-yl)-2-oxo-ethyl]-7-methoxy-11-methyl-15,15-dioxo-spiro[20-oxa-15-thia-1,14-diazatetracyclo[14.7.2.03,6.019,24]pentacosa-8,16,18,24-tetraene-22,1′-tetralin]-13-one]
IC50 (H929 cells): > 1000 nM
Ki (MCL-1): < 1 nM

Structure (SMILES): CO[C@@H]1/C=C/COCC(=O)NS(=O)(=O)c2ccc3c(c2)N(C[C@@H]2CC[C@H]21)C[C@@]1(CCCc2cc(Cl)ccc21)CO3 [Example 112, (3R,6R,7R,8E,22S)-6′-Chloro-7-methoxy-15,15-dioxo-spiro[[11,20]dioxa[15]thia-1,14-diazatetracyclo[14.7.2.03,6.019,24]pentacosa[8,16(25),17,19(24)]tetraene-22,1′-tetralin]-13-one]
IC50 (H929 cells): > 1000 nM
Ki (MCL-1): 1 to 100 nM

Structure (SMILES): CN1C/C=C/[C@H](OC(=O)N[C@@H]2CCOC2)[C@@H]2CC[C@H]2CN2C[C@@]3(CCCc4cc(Cl)ccc43)COc3ccc(cc32)S(=O)(=O)NC(=O)C12CCC2 [Example 243, [(3R,6R,7S,8E,22S)-6′-Chloro-11-methyl-12,12-(1,3-propylene)-13,15,15-trioxo-spiro[20-oxa-15-thia-1,11,14-triazatetracyclo[14.7.2.03,6.019,24]pentacosa-8,16,18,24-tetraene-22,1′-tetralin]-7-yl] N-[(3R)-tetrahydrofuran-3-yl]carbamate]
IC50 (H929 cells): < 500 nM
Ki (MCL-1): < 1 nM

Structure (SMILES): C[C@@H]1NC(=O)COC[C@@H]2CC[C@H]2CN2C[C@@]3(CCCc4cc(Cl)ccc43)COc3ccc(cc32)S(=O)(=O)NC1=O [Example 197, (3R,6R,12S,22S)-6′-Chloro-12-methyl-15,15-dioxo-spiro[8,20-dioxa-15-thia-1,11,14-triazatetracyclo[14.7.2.0˜3,6.0˜19,24]pentacosa-16,18,24-triene-22,1′-tetralin]-10,13-dione]
IC50 (H929 cells): > 1000 nM
Ki (MCL-1): 1 to 100 nM

Structure (SMILES): COCCOC[C@H]1C(=O)NS(=O)(=O)c2ccc3c(c2)N(C[C@@H]2CC[C@H]2[C@H](OC)/C=C/C[C@@H]1C)C[C@@]1(CCCc2cc(Cl)ccc21)CO3 [Example 93, (3R,6R,7R,8E,11S,12S,22S)-6′-chloro-7-methoxy-12-(2-methoxyethoxymethyl)-11-methyl-15,15-dioxo-spiro[20-oxa-15-thia-1,14-diazatetracyclo[14.7.2.03,6.019,24]pentacosa-8,16,18,24-tetraene-22,1′-tetralin]-13-one]
IC50 (H929 cells): > 1000 nM
Ki (MCL-1): 1 to 100 nM

Structure (SMILES): CO[C@@H]1CCCCC(=O)NS(=O)(=O)c2ccc3c(c2)N(C[C@@H]2CC[C@H]21)C[C@@]1(CCCc2cc(Cl)ccc21)CO3 [Example 76, (3R,6R,7R,21S)-6′-Chloro-7-methoxy-14,14-dioxo-spiro[19-oxa-14-thia-1,13-diazatetracyclo[13.7.2.03,6.018,23]tetracosa-15,17,23-triene-21,1′-tetralin]-12-one]
IC50 (H929 cells): > 1000 nM
Ki (MCL-1): 1 to 100 nM

Structure (SMILES): C[C@H]1C(=O)NS(=O)(=O)c2ccc3c(c2)N(C[C@@H]2CC[C@H]2[C@@H](OC(=O)N(C)C)/C=C/CN1C)C[C@@]1(CCCc2cc(Cl)ccc21)CO3 [Example 147, [(3R,6R,7S,8E,12S,22S)-6′-Chloro-11,12-dimethyl-13,15,15-trioxo-spiro[20-oxa-15-thia-1,11,14-triazatetracyclo[14.7.2.03,6.019,24]pentacosa-8,16,18,24-tetraene-22,1′-tetralin]-7-yl] N,N-dimethylcarbamate]
IC50 (H929 cells): < 500 nM
Ki (MCL-1): < 1 nM

Structure (SMILES): CO[C@@H]1/C=C/C[C@H](C)[C@@H](CC(=O)N2CCOCC2)C(=O)NS(=O)(=O)c2ccc3c(c2)N(C[C@@H]2CC[C@H]21)C[C@@]1(CCCc2cc(Cl)ccc21)CO3 [Example 92, (3R,6R,7R,8E,11S,12R,22S)-6′-Chloro-7-methoxy-11-methyl-12-(2-morpholino-2-oxo-ethyl)-15,15-dioxo-spiro[20-oxa-15-thia-1,14-diazatetracyclo[14.7.2.03,6.019,24]pentacosa-8,16,18,24-tetraene-22,1′-tetralin]-13-one]
IC50 (H929 cells): < 1000 nM
Ki (MCL-1): < 1 nM

Structure (SMILES): CC1(C)OC/C=C/[C@H](OC(=O)NCCN2CCC(O)CC2)[C@@H]2CC[C@H]2CN2C[C@@]3(CCCc4cc(Cl)ccc43)COc3ccc(cc32)S(=O)(=O)NC1=O [Example 150, [(3R,6R,7S,8E,22S)-6′-Chloro-12,12-dimethyl-13,15,15-trioxo-spiro[11,20-dioxa-15-thia-1,14-diazatetracyclo[14.7.2.03,6.019,24]pentacosa-8,16,18,24-tetraene-22,1′-tetralin]-7-yl] N-[2-(4-hydroxy-1-piperidyl)ethyl]carbamate]
IC50 (H929 cells): < 1000 nM
Ki (MCL-1): < 1 nM

Structure (SMILES): CC1(C)OC/C=C/[C@H](O)[C@@H]2CC[C@H]2CN2C[C@]3(COc4ccc(cc42)S(=O)(=O)NC1=O)OCCc1cc(Cl)ccc13 [Example 249, (3R,6R,7S,8E,22R)-6′-Chloro-7-hydroxy-12,12-dimethyl-15,15-dioxo-spiro[11,20-dioxa-15-thia-1,14-diazatetracyclo[14.7.2.03,6.019,24]pentacosa-8,16,18,24-tetraene-22,1′-isochromane]-13-one]
IC50 (H929 cells): > 1000 nM
Ki (MCL-1): 1 to 100 nM

Structure (SMILES): CN(C(=O)O[C@H]1/C=C/CN(C)C(C)(C)C(=O)NS(=O)(=O)c2ccc3c(c2)N(C[C@@H]2CC[C@H]21)C[C@@]1(CCCc2cc(Cl)ccc21)CO3)[C@H]1CCOC1 [Example 226, [(3R,6R,7S,8E,22S)-6′-Chloro-11,12,12-trimethyl-13,15,15-trioxo-spiro[20-oxa-15-thia-1,11,14-triazatetracyclo[14.7.2.03,6.019,24]pentacosa-8,16,18,24-tetraene-22,1′-tetralin]-7-yl] N-methyl-N-[(3S)-tetrahydrofuran-3-yl]carbamate]
IC50 (H929 cells): < 500 nM
Ki (MCL-1): < 1 nM

Structure (SMILES): CC1(C)OC/C=C/[C@H](OC(=O)NC2CCOCC2)[C@@H]2CC[C@H]2CN2C[C@@]3(CCCc4cc(Cl)ccc43)COc3ccc(cc32)S(=O)(=O)NC1=O [Example 185, [(3R,6R,7S,8E,22S)-6′-Chloro-12,12-dimethyl-13,15,15-trioxo-spiro[11,20-dioxa-15-thia-1,14-diazatetracyclo[14.7.2.03,6.019,24]pentacosa-8,16,18,24-tetraene-22,1′-tetralin]-7-yl] N-tetrahydropyran-4-ylcarbamate]
IC50 (H929 cells): < 500 nM
Ki (MCL-1): < 1 nM

Results, then the molecule that gave them:

IC50 (H929 cells): < 500 nM
Ki (MCL-1): < 1 nM
Structure (SMILES): CC1(C)OC/C=C/[C@H](OCCN2CCCCC2)[C@@H]2CC[C@H]2CN2C[C@@]3(CCCc4cc(Cl)ccc43)COc3ccc(cc32)S(=O)(=O)NC1=O [Example 263, (3R,6R,7S,8E,22S)-6′-Chloro-12,12-dimethyl-15,15-dioxo-7-[2-(1-piperidyl)ethoxy]spiro[11,20-dioxa-15-thia-1,14-diazatetracyclo[14.7.2.03,6.019,24]pentacosa-8,16,18,24-tetraene-22,1′-tetralin]-13-one]

IC50 (H929 cells): > 1000 nM
Ki (MCL-1): 1 to 100 nM
Structure (SMILES): CN1C/C=C/[C@H](OCCN2CCC(F)(F)C2)[C@@H]2CC[C@H]2CN2C[C@@]3(CCCc4cc(Cl)ccc43)COc3ccc(cc32)S(=O)(=O)NC(=O)C1(C)C [Example 288, (3R,6R,7S,8E,22S)-6′-Chloro-7-[2-(3,3-difluoropyrrolidin-1-yl)ethoxy]-11,12,12-trimethyl-15,15-dioxo-spiro[20-oxa-15-thia-1,11,14-triazatetracyclo[14.7.2.03,6.019,24]pentacosa-8,16,18,24-tetraene-22,1′-tetralin]-13-one]

IC50 (H929 cells): < 500 nM
Ki (MCL-1): < 1 nM
Structure (SMILES): CC1/C=C/[C@H](OC(=O)N(C)C)[C@@H]2CC[C@H]2CN2C[C@@]3(CCCc4cc(Cl)ccc43)COc3ccc(cc32)S(=O)(=O)NC(=O)C(C)(C)O1 (stereo partly drawn) [Example 292, [(3R,6R,7S,8E,22S)-6′-Chloro-10,12,12-trimethyl-13,15,15-trioxo-spiro[11,20-dioxa-15-thia-1,14-diazatetracyclo[14.7.2.03,6.019,24]pentacosa-8,16,18,24-tetraene-22,1′-tetralin]-7-yl] N,N-dimethylcarbamate]

IC50 (H929 cells): < 500 nM
Ki (MCL-1): < 1 nM
Structure (SMILES): CN(C(=O)O[C@H]1/C=C/COC(C)(C)C(=O)NS(=O)(=O)c2ccc3c(c2)N(C[C@@H]2CC[C@H]21)C[C@@]1(CCOc2cc(Cl)ccc21)CO3)C1COC1 [Example 303, [(3R,6R,7S,8E,22S)-7′-Chloro-12,12-dimethyl-13,15,15-trioxo-spiro[11,20-dioxa-15-thia-1,14-diazatetracyclo[14.7.2.03,6.019,24]pentacosa-8,16,18,24-tetraene-22,4′-chromane]-7-yl] N-methyl-N-(oxetan-3-yl)carbamate]

IC50 (H929 cells): > 1000 nM
Ki (MCL-1): 1 to 100 nM
Structure (SMILES): COCCN1CCCN(CCO[C@H]2/C=C/CN(C)C(C)(C)C(=O)NS(=O)(=O)c3ccc4c(c3)N(C[C@@H]3CC[C@H]32)C[C@@]2(CCCc3cc(Cl)ccc32)CO4)CC1 [Example 277, (3R,6R,7S,8E,22S)-6′-Chloro-7-[2-[4-(2-methoxyethyl)-1,4-diazepan-1-yl]ethoxy]-11,12,12-trimethyl-15,15-dioxo-spiro[20-oxa-15-thia-1,11,14-triazatetracyclo[14.7.2.03,6.019,24]pentacosa-8,16,18,24-tetraene-22,1′-tetralin]-13-one]
